Source: US9221756B2, “Pyrrole derivatives” (priority 2011, dated 2015)
Where two headings read alike, the source gives them in different places.

Biological target: pneumolysin (Streptococcus pneumoniae serotype 2, UniProt Q04IN8)
Assay: Inhibition of the haemolytic activity of pneumolysin (sheep erythrocytes)
Format: cell-based
[1] = IC50, inhibition of pneumolysin-induced haemolysis of sheep erythrocytes, class symbols of Table 1
[2] = IC50, inhibition of pneumolysin-induced haemolysis of sheep erythrocytes, specific values

pneumolysin, sequence (Q04IN8 whole entry): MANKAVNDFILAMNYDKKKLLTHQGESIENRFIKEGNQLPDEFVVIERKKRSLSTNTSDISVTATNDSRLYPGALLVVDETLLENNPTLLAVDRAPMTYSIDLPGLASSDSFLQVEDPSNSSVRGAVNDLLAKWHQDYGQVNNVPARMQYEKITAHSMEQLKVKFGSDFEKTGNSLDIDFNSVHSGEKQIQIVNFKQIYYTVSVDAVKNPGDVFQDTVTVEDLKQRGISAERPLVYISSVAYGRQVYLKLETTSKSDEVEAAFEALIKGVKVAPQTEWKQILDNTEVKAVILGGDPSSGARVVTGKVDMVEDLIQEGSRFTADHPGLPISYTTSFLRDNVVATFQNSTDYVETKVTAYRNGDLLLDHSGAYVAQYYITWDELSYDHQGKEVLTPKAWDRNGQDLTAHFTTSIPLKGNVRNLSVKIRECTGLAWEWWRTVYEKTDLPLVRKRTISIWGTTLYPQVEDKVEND

CN(Cc1ccccc1)C(=O)c1c(O)c(O)c(C(=O)N(C)Cc2ccccc2)n1-c1ccc(F)cc1 [UL1-014, N^2,N^5-dibenzyl-1-(4-fluorophenyl)-3,4-dihydroxy-N^2,N^5-dimethyl-1H-pyrrole-2,5-dicarboxamide]
IC50 [1]: < 10 µM

CC(C)N(C)C(=O)c1c(O)c(O)c(C(=O)N(C)C(C)C)n1-c1ccc(F)cc1 [UL1-013, 1-(4-fluorophenyl)-3,4-dihydroxy-N^2,N^5-diisopropyl-N^2,N^5-dimethyl-1H-pyrrole-2,5-dicarboxamide]
IC50 [1]: < 10 µM

CCOc1ccc(-n2c(C(N)=O)c(O)c(O)c2C(N)=O)cc1 [UL1-077, 1-(4-ethoxyphenyl)-3,4-dihydroxy-1H-pyrrole-2,5-dicarboxamide]
IC50 [1]: 20 to 60 µM

COc1ccc(-n2c(C(=O)N(C)C)c(O)c(O)c2C(=O)N2CCCCC2)cc1 [UL1-025, 3,4-dihydroxy-1-(4-methoxyphenyl)-N,N-dimethyl-5-(piperidine-1-carbonyl)-1H-pyrrole-2-carboxamide]
IC50 [1]: < 10 µM

COc1ccc(-n2c(C(=O)N3CCNCC3)c(O)c(O)c2C(=O)N2CCNCC2)cc1 [UL1-016, (3,4-dihydroxy-1-(4-methoxyphenyl)-1H-pyrrole-2,5-diyl)bis(piperazin-1-ylmethanone)]
IC50 [1]: < 10 µM

CCOC(=O)c1c(O)c(O)c(C(=O)OCC)n1-c1ccc(F)cc1 [UL2-003, diethyl 1-(4-fluorophenyl)-3,4-dihydroxy-1H-pyrrole-2,5-dicarboxylate]
IC50 [1]: 10 to 20 µM

CCOC(=O)c1c(O)c(O)c(C(=O)OCC)n1-c1ccc(OCC)cc1 [UL2-008, diethyl 1-(4-ethoxyphenyl)-3,4-dihydroxy-1H-pyrrole-2,5-dicarboxylate]
IC50 [1]: < 10 µM

COc1ccccc1-n1c(C(=O)N2CCOCC2)c(O)c(O)c1C(=O)N1CCOCC1 [UL1-020, (3,4-dihydroxy-1-(2-methoxyphenyl)-1H-pyrrole-2,5-diyl)bis(morpholinomethanone)]
IC50 [1]: < 10 µM

CN(C)C(=O)c1c(O)c(O)c(C(=O)N(C)C)n1-c1ccc(F)cc1 [ULI-008, 1-(4-fluorophenyl)-3,4-dihydroxy-N^2,N^2,N^5,N^5-tetramethyl-1H-pyrrole-2,5-dicarboxamide]
IC50 [1]: < 10 µM

COc1ccc(-n2c(C(=O)OC3CCCC3)c(O)c(O)c2C(=O)N(C)C)cc1 [UL1-116, cyclopentyl 5-(dimethylcarbamoyl)-3,4-dihydroxy-1-(4-methoxyphenyl)-1H-pyrrole-2-carboxylate]
IC50 [1]: < 10 µM
IC50 [2]: 0.18 µM

COc1ccc(-n2c(C(=O)OC(C)C)c(O)c(O)c2C(=O)OC(C)C)cc1 [UL2-020, diisopropyl 3,4-dihydroxy-1-(4-methoxyphenyl)-1H-pyrrole-2,5-dicarboxylate]
IC50 [1]: < 10 µM

CCOC(=O)c1c(O)c(O)c(C(=O)OCC)n1-c1ccc(Cl)cc1 [UL2-012, diethyl 1-(4-chlorophenyl)-3,4-dihydroxy-1H-pyrrole-2,5-dicarboxylate]
IC50 [1]: < 10 µM

COc1ccc(-n2c(C(=O)N(C)C)c(O)c(O)c2C(=O)N2CCOCC2)cc1 [UL1-026, 3,4-dihydroxy-1-(4-methoxyphenyl)-N,N-dimethyl-5-(morpholine-4-carbonyl)-1H-pyrrole-2-carboxamide]
IC50 [1]: < 10 µM

COc1ccc(-n2c(C(=O)OCC(C)(C)C)c(O)c(O)c2C(=O)N(C)C)cc1 [UL1-112, neopentyl 5-(dimethylcarbamoyl)-3,4-dihydroxy-1-(4-methoxyphenyl)-1H-pyrrole-2-carboxylate]
IC50 [1]: < 10 µM

CCOC(=O)c1c(O)c(O)c(C(=O)OCC)n1-c1ccc(OC)c(OC)c1 [UL2-011, diethyl 1-(3,4-dimethoxyphenyl)-3,4-dihydroxy-1H-pyrrole-2,5-dicarboxylate]
IC50 [1]: < 10 µM

CCOC(=O)c1c(OCc2ccccc2)c(OCc2ccccc2)c(-c2nnc(C)o2)n1-c1ccc(OC)cc1 [UL1-087, ethyl 3,4-bis(benzyloxy)-1-(4-methoxyphenyl)-5-(5-methyl-1,3,4-oxadiazol-2-yl)-1H-pyrrole-2-carboxylate]
IC50 [1]: < 10 µM

CCOC(=O)c1c(O)c(O)c(C(=O)OCC)n1-c1ccc(OCc2ccc(OC)cc2)cc1 [UL2-038, diethyl 3,4-dihydroxy-1-(4-((4-methoxybenzyl)oxy)phenyl)-1H-pyrrole-2,5-dicarboxylate]
IC50 [1]: < 10 µM

NC(=O)c1c(O)c(O)c(C(N)=O)n1-c1ccc(F)cc1 [UL1-076, 1-(4-fluorophenyl)-3,4-dihydroxy-1H-pyrrole-2,5-dicarboxamide]
IC50 [1]: 10 to 20 µM

CCOC(=O)c1c(O)c(OP(=O)(OCC)OCC)c(C(=O)N(C)C)n1-c1ccc(OC)cc1 [UL1-097, ethyl 4-((diethoxyphosphoryl)oxy)-5-(dimethylcarbamoyl)-3-hydroxy-1-(4-methoxyphenyl)-1H-pyrrole-2-carboxylate]
IC50 (inhibition of pneumolysin-induced haemolysis of sheep erythrocytes, class symbols of Table 1, read-out: IC50): > 60 µM

COc1ccc(-n2c(C(N)=O)c(OCc3ccccc3)c(OCc3ccccc3)c2C(N)=O)cc1 [UL1-072, 3,4-bis(benzyloxy)-1-(4-methoxyphenyl)-1H-pyrrole-2,5-dicarboxamide]
IC50 [1]: 20 to 60 µM

COc1ccc(-n2c(C(C)=O)c(O)c(O)c2C(=O)N(C)C)cc1 [UL1-091, 5-acetyl-3,4-dihydroxy-1-(4-methoxyphenyl)-N,N-dimethyl-1H-pyrrole-2-carboxamide]
IC50 [1]: < 10 µM

CCOC(=O)c1c(O)c(O)c(C(=O)N(C)C)n1-c1ccc(OCCOC)cc1 [UL1-093, ethyl 5-(dimethylcarbamoyl)-3,4-dihydroxy-1-(4-(2-methoxyethoxy)phenyl)-1H-pyrrole-2-carboxylate]
IC50 [1]: < 10 µM

CN(C)C(=O)c1ccc(-n2c(C(=O)N(C)C)c(O)c(O)c2C(=O)N(C)C)cc1 [UL1-029, 1-(4-(dimethylcarbamoyl)phenyl)-3,4-dihydroxy-N^2,N^2,N^5,N^5-tetramethyl-1H-pyrrole-2,5-dicarboxamide]
IC50 [1]: < 10 µM

CCOC(=O)c1c(O)c(O)c(C(=O)N(C)C)n1-c1ccc(F)cc1 [UL1-032, ethyl 5-(dimethylcarbamoyl)-1-(4-fluorophenyl)-3,4-dihydroxy-1H-pyrrole-2-carboxylate]
IC50 [1]: < 10 µM

CCOC(=O)c1c(O)c(O)c(C(=O)N2CCOCC2)n1-c1ccc(OC)cc1 [UL1-040, ethyl 3,4-dihydroxy-1-(4-methoxyphenyl)-5-(morpholine-4-carbonyl)-1H-pyrrole-2-carboxylate]
IC50 [1]: < 10 µM

CCOC(=O)c1c(O)c(O)c(-c2nn[nH]n2)n1-c1ccc(OC)cc1 [UL1-089, ethyl 3,4-dihydroxy-1-(4-methoxyphenyl)-5-(2H-tetrazol-5-yl)-1H-pyrrole-2-carboxylate]
IC50 [1]: < 10 µM
IC50 [2]: 0.4 µM

CC(=O)N1CCN(C(=O)c2c(O)c(O)c(C(=O)N3CCN(C(C)=O)CC3)n2-c2ccc(F)cc2)CC1 [UL1-010, 1,1′-(4,4′-(1-(4-fluorophenyl)-3,4-dihydroxy-1H-pyrrole-2,5-dicarbonyl)bis(piperazine-4,1-diyl))diethanone]
IC50 [1]: < 10 µM

COc1ccc(-n2c(C(N)=O)c(O)c(O)c2C(N)=O)cc1 [UL1-073, 3,4-dihydroxy-1-(4-methoxyphenyl)-1H-pyrrole-2,5-dicarboxamide]
IC50 [1]: < 10 µM

CCOC(=O)c1c(O)c(O)c(C(=O)OCC)n1-c1cc(F)c(OCC)c(F)c1 [UL2-017, diethyl 1-(4-ethoxy-3,5-difluorophenyl)-3,4-dihydroxy-1H-pyrrole-2,5-dicarboxylate]
IC50 [1]: < 10 µM

CCOC(=O)c1c(O)c(O)c(C(=O)N(CC)CC)n1-c1ccc(OC)cc1 [UL1-041, ethyl 5-(diethylcarbamoyl)-3,4-dihydroxy-1-(4-methoxyphenyl)-1H-pyrrole-2-carboxylate]
IC50 [1]: < 10 µM

CCOC(=O)c1c(OCc2ccccc2)c(OCc2ccccc2)c(C#N)n1-c1ccc(F)cc1 [UL1-060, ethyl 3,4-bis(benzyloxy)-5-cyano-1-(4-fluorophenyl)-1H-pyrrole-2-carboxylate]
IC50 [1]: 20 to 60 µM

COc1ccc(-n2c(C(=O)OC3C(C)CCCC3C)c(O)c(O)c2C(=O)N(C)C)cc1 (stereo not shown) [UL1-113, 2,6-dimethylcyclohexyl 5-(dimethylcarbamoyl)-3,4-dihydroxy-1-(4-methoxyphenyl)-1H-pyrrole-2-carboxylate]
IC50 [1]: < 10 µM

CN(C(=O)c1c(O)c(O)c(C(=O)N(C)c2ccccc2)n1-c1ccc(F)cc1)c1ccccc1 [UL1-007, 1-(4-fluorophenyl)-3,4-dihydroxy-N^2,N^5-dimethyl-N^2,N^5-diphenyl-1H-pyrrole-2,5-dicarboxamide]
IC50 [1]: 20 to 60 µM

CCOc1ccc(-n2c(C(=O)N3CCOCC3)c(O)c(O)c2C(=O)N2CCOCC2)cc1 [UL1-022, (1-(4-ethoxyphenyl)-3,4-dihydroxy-1H-pyrrole-2,5-diyl)bis(morpholinomethanone)]
IC50 [1]: < 10 µM

COc1ccc(-n2c(C(=O)N(C)C)c(OC(=O)[C@H]3CC[C@H](COP(=O)(O)O)CC3)c(OC(=O)[C@H]3CC[C@H](COP(=O)(O)O)CC3)c2C(=O)N(C)C)cc1 [UL1-126, (1R,1′R,4R,4′R)-2,5-bis(dimethylcarbamoyl)-1-(4-methoxyphenyl)-1H-pyrrole-3,4-diyl bis(4-((phosphonooxy)methyl)cyclohexanecarboxylate)]
IC50 [1]: < 10 µM

CCOC(=O)c1c(O)c(O)c(C(=O)OCC)n1-c1ccc(OCCOC)cc1 [UL2-034, diethyl 3,4-dihydroxy-1-(4-(2-methoxyethoxy)phenyl)-1H-pyrrole-2,5-dicarboxylate]
IC50 [1]: < 10 µM

CCOC(=O)c1c(O)c(O)c(C(=O)OCC)n1-c1ccccc1OC [UL2-023, diethyl 3,4-dihydroxy-1-(2-methoxyphenyl)-1H-pyrrole-2,5-dicarboxylate]
IC50 [1]: 20 to 60 µM

CCOC(=O)c1c(OCc2ccccc2)c(OCc2ccccc2)c(-c2cccnc2)n1-c1ccc(OC)cc1 [UL1-085, ethyl 3,4-bis(benzyloxy)-1-(4-methoxyphenyl)-5-(pyridin-3-yl)-1H-pyrrole-2-carboxylate]
IC50 [1]: < 10 µM

COc1ccc(-n2c(C(=O)OC(C)C)c(O)c(O)c2C(=O)N(C)C)cc1 [UL1-035, isopropyl 5-(dimethylcarbamoyl)-3,4-dihydroxy-1-(4-methoxyphenyl)-1H-pyrrole-2-carboxylate]
IC50 [1]: < 10 µM
IC50 [2]: 0.15 µM

CCOC(=O)c1c(O)c(O)c(C(=O)OCC)n1-c1ccc(OCCCN2CCOCC2)cc1 [UL2-037, diethyl 3,4-dihydroxy-1-(4-(3-morpholinopropoxy)phenyl)-1H-pyrrole-2,5-dicarboxylate]
IC50 [1]: < 10 µM
